Measured values: publication PMC10377586 (Biomolecules, 2023)

Columns and labels:
human PDE10A1 = target: T1, human PDE10A1 (Homo sapiens, UniProt Q9Y233); experiment: PDElight HTS cAMP phosphodiesterase assay, PDE10A1; assay type: biochemical; conditions: read-out: PDE 10A1 IC50 ± SEM
T1 construct: purchased BPS Biosciences
Method: (§1) Further biological evaluation of the presented compound library was performed determining inhibitory potencies against selected human PDE isoforms, namely, PDE4 and PDE10 (for results see Table 3).
(§2) Tested and reference compounds were dissolved in dimethyl sulfoxide (DMSO) at a concentration of 10 mM and further diluted in assay buffer (10 mM Tris-HCl, 10 mM magnesium chloride and 0.05% Tween-20; pH 7.4). Inhibition of human PDE10A and 4B1 was measured using PDElight HTS cAMP phosphodiesterase assay kit (Lonza, Basel, Switzerland) according to manufacturer’s recommendations. Then, 10 ng of PDE10A and 5 ng of PDE4B1 (BPS Biosciences, San Diego, CA, USA) in appropriate buffer was incubated with reference and tested compound for 20 min. […] Then PDELight AMP Detection Reagent was added and incubated 10 min. All reactions were carried out at 37 °C in 96 white-walled, half-area-well plates (PerkinElmer). Luminescence was measured in a multifunction plate reader (POLARstar Omega, BMG Labtech, Ortenberg, Germany). The percentage of inhibition and IC50s were computed using GraphPad Prism Version 6.0 software.

human MAO-B = target: T2, human MAO-B (Homo sapiens, UniProt P27338); experiment: Amplex Red monoamine oxidase assay, MAO-B; assay type: biochemical; conditions: human recombinant MAO-B; read-out: MAO-B IC50 ± SEM
T2 construct: purchased Sigma Aldrich M7441
T2 sequence (P27338 1-520): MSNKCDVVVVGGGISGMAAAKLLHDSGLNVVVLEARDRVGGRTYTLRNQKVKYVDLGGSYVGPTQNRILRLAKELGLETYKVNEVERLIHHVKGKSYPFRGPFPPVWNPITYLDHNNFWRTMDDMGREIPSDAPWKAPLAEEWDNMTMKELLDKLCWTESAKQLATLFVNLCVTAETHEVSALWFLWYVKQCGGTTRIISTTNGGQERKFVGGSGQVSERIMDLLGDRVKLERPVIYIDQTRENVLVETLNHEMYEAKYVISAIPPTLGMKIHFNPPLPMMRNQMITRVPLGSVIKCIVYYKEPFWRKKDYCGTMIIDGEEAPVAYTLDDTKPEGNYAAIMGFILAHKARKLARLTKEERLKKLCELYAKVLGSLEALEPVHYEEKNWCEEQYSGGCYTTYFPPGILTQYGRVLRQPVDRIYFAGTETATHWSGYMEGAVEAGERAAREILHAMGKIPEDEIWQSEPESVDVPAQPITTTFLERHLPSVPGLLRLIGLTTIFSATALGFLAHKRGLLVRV

rat A1 (rA1) ARs = target: T3, rat A1 (rA1) ARs (Rattus norvegicus, UniProt P25099); experiment: Radioligand binding [3H]CCPA, rat brain cortical membranes; conditions: read-out: rA1 [3H]CCPA Ki ± SEM
T3 construct: using rat brain cortical membrane preparations for A1; tissue Pel Freez; host or cells: rat brain cortex membranes
T3 sequence (P25099 1-326): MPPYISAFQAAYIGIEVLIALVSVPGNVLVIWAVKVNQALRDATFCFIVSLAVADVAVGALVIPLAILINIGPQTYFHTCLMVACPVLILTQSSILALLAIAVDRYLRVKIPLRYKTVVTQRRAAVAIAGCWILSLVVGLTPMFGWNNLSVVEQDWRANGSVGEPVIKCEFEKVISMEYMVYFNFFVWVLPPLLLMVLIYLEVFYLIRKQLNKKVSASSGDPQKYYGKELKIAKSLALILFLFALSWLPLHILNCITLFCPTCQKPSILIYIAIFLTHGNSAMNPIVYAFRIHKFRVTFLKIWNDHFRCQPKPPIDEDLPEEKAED
Method: The final compounds were tested in radioligand binding assays to evaluate their affinity for all four ARs subtypes (see Table 2). Rat brain cortical membrane preparations were used as a source of rat A1 (rA1) ARs, and rat brain striatal membrane preparations served as a source of rat A2A (rA2A) ARs. For A2B- and A3AR assays, membrane preparations of Chinese hamster ovary (CHO) cells recombinantly expressing either human A2B (hA2B) or human A3 (hA3) ARs were employed.
Adenosine receptor radioligand binding assays were performed as previously described using rat brain cortical membrane preparations for A1 and rat brain striatal membrane preparations for A2A AR assays. Frozen rat brains (unstripped) were obtained from Pel Freez, Rogers, AR, USA. For assays at human AR subtypes, cell membranes of CHO cells recombinantly expressing the respective receptor were used. The following compounds were employed as radioligands: A1: [^3H]2-chloro-N^6-cyclopentyladenosine ([^3H]CCPA); A2A: [^3H]3-(3-hydroxypropyl)-7-methyl-8-(m-methoxystyryl)-1-propargylxanthine ([^3H]MSX-2); A2B: [^3H]8-(4-(4-(4-chlorophenyl)piperazine-1-sulfonyl)phenyl)-1-propylxanthine ([^3H]PSB-603); A3: [^3H]phenyl-8-ethyl-4-methyl-(8R)-4,5,7,8-tetrahydro-1H-imidazo[2,1-i]purine-5-one ([^3H]PSB-11). Initially, a single high concentration of compound was tested (1 µM). For potent compounds, full concentration–inhibition curves were determined using six to ten different concentrations of test compound spanning three orders of magnitude. At least three independent experiments were performed. Data were analyzed using GraphPad PRISM program version 4.0 or higher (Graph Pad, San Diego, CA, USA).

DPPH antioxidant assay = assay type: physicochemical; conditions: compound at 50 µM
Text: The 2,2-diphenyl-1-picrylhydrazyl (DPPH) assay was used to determine the antioxidant properties of selected compounds using ascorbic acid, trolox, and quercetin as references. […] From a structural point of view, 21 and 22 share a common pyrimido[2,1-f]purinedione core with propyl or butyl substituents at the N1- and N3-position. Compounds 11i and 11l, containing hexyl or phenoxyethyl as N7-substituents, were the only structures in the groups of bicyclic xanthine derivatives that lacked antioxidant activity in the DPPH assay.
Antioxidant properties of considered structures were evaluated in DPPH test. The assay utilizes a stable free radical 2,2-diphenyl-1-picrylhydrazyl (DPPH). DPPH has a deep violet color in solution and strong absorption band at 520 nm. The antioxidant activity of the tested compounds was defined by their ability to induce the formation of the reduced form of DPPH. Upon reduction, DPPH color turned pale yellow, which manifested by decreased sample absorption at 520 nm and was measured in conducted experiments using EnSpire microplate reader (PerkinElmer). Antioxidant activity of xanthine derivatives and reference compounds was tested in triplicate at 50 µM concentration and normalized to the activity of reference radical scavenger—quercetin.
Figure 2 Antioxidant properties of xanthine derivatives evaluated in the DPPH test. All compounds were tested at 50 µM concentration. Results were normalized to the antioxidant activity measured for quercetin. ASC, ascorbic acid; TLX, trolox; QCT, quercetin.

human PDE4B1 = target: T4, human PDE4B1 (Homo sapiens, UniProt Q07343); experiment: PDElight HTS cAMP phosphodiesterase assay, PDE4B1; assay type: biochemical; conditions: for IC50: read-out: PDE 4B1 IC50 ± SEM
T4 construct: purchased BPS Biosciences
T4 sequence (Q07343 whole entry): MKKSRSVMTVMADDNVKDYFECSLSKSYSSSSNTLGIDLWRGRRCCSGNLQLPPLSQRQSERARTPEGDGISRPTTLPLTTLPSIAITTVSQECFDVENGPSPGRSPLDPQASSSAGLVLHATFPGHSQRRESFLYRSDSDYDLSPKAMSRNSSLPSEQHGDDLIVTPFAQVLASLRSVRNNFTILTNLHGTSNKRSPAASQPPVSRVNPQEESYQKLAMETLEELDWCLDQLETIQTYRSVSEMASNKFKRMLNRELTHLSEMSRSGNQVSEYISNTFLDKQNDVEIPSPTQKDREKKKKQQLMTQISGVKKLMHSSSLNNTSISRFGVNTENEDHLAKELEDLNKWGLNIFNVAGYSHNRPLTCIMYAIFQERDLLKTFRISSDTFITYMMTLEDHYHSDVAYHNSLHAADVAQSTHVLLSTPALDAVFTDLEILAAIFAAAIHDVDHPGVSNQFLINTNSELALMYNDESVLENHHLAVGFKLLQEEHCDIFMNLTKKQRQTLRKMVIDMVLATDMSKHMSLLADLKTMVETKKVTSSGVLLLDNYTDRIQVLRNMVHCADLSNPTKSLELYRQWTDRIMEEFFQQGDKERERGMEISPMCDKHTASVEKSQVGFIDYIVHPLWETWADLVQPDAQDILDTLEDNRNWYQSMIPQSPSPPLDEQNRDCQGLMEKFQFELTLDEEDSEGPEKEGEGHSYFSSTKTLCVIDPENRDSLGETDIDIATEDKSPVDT
Method: as §1, §2

T1 sequence (Q9Y233 1-779 isoform Q9Y233-1): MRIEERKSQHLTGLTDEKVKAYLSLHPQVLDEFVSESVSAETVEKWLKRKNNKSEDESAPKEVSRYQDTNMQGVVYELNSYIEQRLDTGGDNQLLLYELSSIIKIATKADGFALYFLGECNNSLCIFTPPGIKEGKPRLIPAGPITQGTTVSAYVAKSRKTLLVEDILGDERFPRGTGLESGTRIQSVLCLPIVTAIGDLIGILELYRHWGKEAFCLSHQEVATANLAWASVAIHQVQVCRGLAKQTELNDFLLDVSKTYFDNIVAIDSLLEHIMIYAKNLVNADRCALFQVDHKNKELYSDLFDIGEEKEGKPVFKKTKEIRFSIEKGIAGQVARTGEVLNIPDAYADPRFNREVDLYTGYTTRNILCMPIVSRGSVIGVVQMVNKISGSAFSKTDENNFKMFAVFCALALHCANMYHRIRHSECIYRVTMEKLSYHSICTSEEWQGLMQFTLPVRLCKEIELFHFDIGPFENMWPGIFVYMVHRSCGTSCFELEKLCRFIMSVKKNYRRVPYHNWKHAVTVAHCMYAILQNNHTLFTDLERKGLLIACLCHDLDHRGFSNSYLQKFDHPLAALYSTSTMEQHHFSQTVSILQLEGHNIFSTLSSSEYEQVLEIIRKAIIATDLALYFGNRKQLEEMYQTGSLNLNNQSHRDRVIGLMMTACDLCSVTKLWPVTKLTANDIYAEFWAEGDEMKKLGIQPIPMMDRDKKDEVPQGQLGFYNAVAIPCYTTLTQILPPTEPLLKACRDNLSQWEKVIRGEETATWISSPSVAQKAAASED

| SMILES | IC50 (human PDE10A1) [nM] | IC50 (human MAO-B) [nM] | Ki (rat A1 (rA1) ARs) [nM] | inhibition at 10 µM (human PDE4B1; read-out: PDE 4B1 % Inhibition ± SEM at 10 µM) [%] | IC50 (human PDE4B1) [nM] | Antioxidative Activity [% of Quercetin Response at 50 µM ± SD] (DPPH antioxidant assay) |
| --- | --- | --- | --- | --- | --- | --- |
| CCCn1c(NCCc2ccc(O)c(O)c2)nc2c1c(=O)n(C)c(=O)n2C [Compound 11c, 8-((3,4-Dihydroxyphenethyl)amino)-1,3-dimethyl-7-propyl-3,7-dihydro-1H-purine-2,6-dione] | 3450 ± 270 | 165 ± 30 | 730 ± 93 | – | 3320 ± 800 | 69 ± 1 % of Quercetin Response |
| CCn1c(NCCc2ccc(O)c(O)c2)nc2c1c(=O)n(C)c(=O)n2C [Compound 11b, 8-((3,4-Dihydroxyphenethyl)amino)-7-ethyl-1,3-dimethyl-3,7-dihydro-1H-purine-2,6-dione] | 4630 ± 1250 | 47.9 ± 8.4 | 479 ± 95 | – | 2520 ± 140 | 75 ± 1 % of Quercetin Response |
| CCCn1c(=O)c2c(nc(NCCc3ccc(O)c(O)c3)n2CCC)n(CCC)c1=O [Compound 12, 8-((3,4-Dihydroxyphenethyl)amino)-1,3,7-tripropyl-3,7-dihydro-1H-purine-2,6-dione] | 2730 ± 30 | 105 ± 23 | 130 ± 31 | – | 14500 ± 480 | 86 ± 3 % of Quercetin Response |

Further compounds by falling IC50 (human PDE10A1), results first:

| IC50 (human PDE10A1) [nM] | IC50 (human MAO-B) [nM] | Ki (rat A1 (rA1) ARs) [nM] | inhibition at 10 µM (human PDE4B1; read-out: PDE 4B1 % Inhibition ± SEM at 10 µM) [%] | IC50 (human PDE4B1) [nM] | SMILES | Antioxidative Activity [% of Quercetin Response at 50 µM ± SD] (DPPH antioxidant assay) |
| --- | --- | --- | --- | --- | --- | --- |
| 30700 ± 200 | 101 ± 21 | 1050 ± 170 | 45 | > 10000 | Cn1c(=O)c2c(nc3n2CCCCN3CCc2ccc(O)c(O)c2)n(C)c1=O [Compound 20b, 10-(3,4-Dihydroxyphenethyl)-1,3-dimethyl-7,8,9,10-tetrahydro-1H-[1, 3]diazepino[2,1-f]purine-2,4(3H,6H)-dione] | 79 ± 1 % of Quercetin Response |
| 15100 ± 3100 | 50.7 ± 10 | 1980 ± 290 | – | 7850 ± 1850 | Cn1c(=O)c2c(nc(NCCc3ccc(O)c(O)c3)n2C)n(C)c1=O [Compound 11a, 8-((3,4-Dihydroxyphenethyl)amino)-1,3,7-trimethyl-3,7-dihydro-1H-purine-2,6-dione] | 79 ± 1 % of Quercetin Response |
| 2410 ± 70 | 73.5 ± 7.5 | ≥ 10000 | – | 4400 ± 540 | Cn1c(=O)c2c(nc(NCCc3ccc(O)c(O)c3)n2CCc2ccccc2)n(C)c1=O [Compound 11k, 8-((3,4-Dihydroxyphenethyl)amino)-1,3-dimethyl-7-phenethyl-3,7-dihydro-1H-purine-2,6-dione] | 73 ± 3 % of Quercetin Response |
